Read-outs that look alike come from different tables or passages of the source.
Key:
[1] = 7 days
Experimental: (§1) 1.5 g of a cosmetic solvent (Capric/Caprylic Triglyceride (Mygliol 318) and C12-15 Alkylbenzoate (Finsolv TN)) is saturated with the respective Benzotriazol-derivative by adding 0.2 g portions while stirring at room temperature. The saturated solution is stirred for 7 days at room temperature. 1 ml of the supernatant is centrifuged and filtered in order to obtain a clear solution. The concentration of the Benzotriazol-derivative is determined by means of HPLC.

[2] = Determination of the solubility in cosmetic solvents; settings: saturated solution stirred 7 days at room temperature, HPLC; for solubility Finsolv TN: C12-15 Alkylbenzoate; for solubility Myritol 318: Capric/Caprylic Triglyceride
Experimental: as §1

| Structure (SMILES) | solubility Finsolv TN [1] [%] | solubility Myritol 318 [1] [%] | solubility Finsolv TN [2] [%] | solubility Myritol 318 [2] [%] |
| --- | --- | --- | --- | --- |
| CCCCC(CC)COCc1cc(C)cc(-n2nc3ccccc3n2)c1O (stereo not drawn) [Example 2, 2-(2H-Benzotriazol-2-yl)-6-(2-ethylhexyloxymethyl)-4-methyl-phenol] | 64 | 66 | – | – |
| Cc1cc(COCCC(C)C)c(O)c(-n2nc3ccccc3n2)c1 [Example 6, 2-(2H-Benzotriazol-2-yl)-6-(3-methyl-butoxymethyl)-4-methyl-phenol] | – | – | 37 | 36 |
| CCCCC(CC)C(=O)OCc1cc(C)cc(-n2nc3ccccc3n2)c1O (stereo not drawn) [Example 8, 2-Ethyl-hexanoic acid 3-(2H-benzotriazol-2-yl)-2-hydroxy-5-methyl-benzyl ester] | – | – | 42 | 24 |
| Cc1cc(COC(=O)CC(C)C)c(O)c(-n2nc3ccccc3n2)c1 [Example 9, 3-Methyl-butyric acid 3-(2H-benzotriazol-2-yl)-2-hydroxy-5-methyl-benzyl ester] | – | – | 8 | 6 |
| CCCCC(CC)COCc1cc(C)cc(-n2nc3ccc(Cl)cc3n2)c1O (stereo not drawn) [Example 12, 2-(5-Chloro-benzotriazol-2-yl)-6-(2-ethylhexyloxymethyl)-4-methyl-phenol] | – | – | 19 | 12 |
| Cc1cc(CO)c(O)c(-n2nc3ccccc3n2)c1 [Example 14, 2-(2H-Benzotriazol-2-yl)-6-hydroxymethyl-4-methyl-phenol] | – | – | 0.02 | 0.01 |
